{"source": "patent US10906881B2", "about": "“Inhibitors of arginine gingipain” (priority 2015, dated 2021)", "key": {"RgpB": {"biological_target": "T1, RgpB (Porphyromonas gingivalis, UniProt P95493)", "T1 construct": "0.02 nM RgpB, isolated from culture of Porphyromonas gingivalis; made in house; host or cells: Porphyromonas gingivalis culture (native enzyme purified from the bacterium, not recombinant)", "experiment": "RgpB fluorogenic inhibition assay", "assay_type": "biochemical", "experimental": "The capacities of compounds of the present invention to inhibit the activity of RgpB were measured in a fluorogenic assay similar to those described in Barret Biochemical Journal. 1980, 187(3), 909. The specific assay conditions were as follows. Buffer: pH=7.5, 100 mM Tris-HCl, 75 mM NaCl, 2.5 mM CaCl2, 10 mM cysteine, 1% DMSO after all additions. Protein: 0.02 nM RgpB, isolated from culture of Porphyromonas gingivalis, as described in Pike et al. J Biol. Chem. 1994, 269(1), 406, and Potempa and Nguyen. Current Protocols in Protein Scienc. 2007, 21.20.1-21.20.27. Fluorogenic substrate: 10 uM Boc-Phe-Ser-Arg-MCA. Time=90 minutes. Temperature=37° C. Each compound: 10 concentrations, starting at either 100 uM or 100 nM, with lower concentrations generated by serial 3-fold dilutions. By testing a range of concentrations for each compound, the concentration required to inhibit the activity of RgpB by 50% (the “IC50”) was determined. Under the described assay conditions, signal-to-noise was excellent, and Z factor was greater than 0.7.\n(§1) The inhibitory of activity of compounds described herein was tested against Kgp, RgpB, RgpA, and trypsin."}, "trypsin": {"biological_target": "T2, trypsin (Bos taurus, UniProt P00760)", "T2 construct": "gene PRSS1", "T2 sequence (P00760 24-246)": "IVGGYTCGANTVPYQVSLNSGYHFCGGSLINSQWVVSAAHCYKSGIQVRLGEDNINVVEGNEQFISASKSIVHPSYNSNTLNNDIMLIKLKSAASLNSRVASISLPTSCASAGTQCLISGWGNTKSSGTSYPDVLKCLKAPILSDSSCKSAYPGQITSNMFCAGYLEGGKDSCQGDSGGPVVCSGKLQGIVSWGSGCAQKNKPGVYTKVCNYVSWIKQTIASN", "experiment": "Trypsin inhibition assay", "assay_type": "biochemical", "experimental": "as §1"}, "[1]": {"test_system": "SH-SY5Y neuroblastoma cells", "experiment": "Rescue of neuroblastoma cells from P. gingivalis toxicity", "assay_type": "cell-based", "details": "4 μg/mL, P. gingivalis ATCC BAA-308, MOI 1:1000, 48 hours", "experimental": "SH-SY5Y neuroblastoma cells were cultured based on established methods [Saberi S., et al. Cell Mol Neurobiol 2013. 33: 5 747-751]. The strain P. gingivalis ATCC BAA-308 was streaked onto a brain heart infusion agar (BHA), and the plate was incubated for 72 h at 37° C. in an anaerobic workstation with an atmosphere of 80% N2, 10% CO2, and 10% H2. The plates were removed from the anaerobic work station for testing and processed under ambient atmosphere. The bacteria were harvested and suspended in complete medium-Pen/Strep (without Pen/Strep). The turbidity of the suspension was adjusted to 0.5, as measured using a MicroScan® Turbidity Meter (Siemens), which is equivalent to ˜6×10^8 cfu/mL (for MOI 1:1000) and incubated with the cells for 48 hours. 4 μg/mL of Compound 13 was added to the media at the time of introduction of the bacteria. Results were recorded using a digital microscope camera (FIG. 5). […] Other compounds of the invention are tested as described for Compound 13."}, "[2]": {"test_system": "gingipain-containing P. gingivalis supernatant", "experiment": "Degradation of human collagen by P. gingivalis supernatant (SDS-PAGE)", "assay_type": "biochemical, Porphyromonas gingivalis", "details": "50 μM inhibitor, 1h, pH 7.5", "experimental": "P. gingivalis was grown to exponential phase (OD 600 nm=0.6) in a Coy's anaerobic chamber under 5% hydrogen, 10% carbon dioxide, and […]. The bacteria were centrifuged at 5000×g for 10 min at 4° C., and then the supernatant was collected. The supernatant was concentrated by centrifugation at 5000×g for 60 min at 4° C. min using Corning Spin-X UF-20 concentrator tubes and then at 17,000×g for 30 min using Corning Spin-X UF500 concentrator tubes. 10 μg of Collagen type I was incubated with 0.6 μg of P. gingivalis culture supernatant for 1h in the absence or presence of 50 μM Rgp inhibitor (Compound 13, Table 1), 50 μM Kgp inhibitor ((S)—N-(6-guanidino-2-oxo-1-(2,3,5,6-tetrafluorophenoxy)hexan-3-yl)cyclopentanecarboxamide; described in U.S. Pat. Appl. Pub. No. 2016/0096830), or both. Reaction mixtures contained 5 mM cysteine, 20 mM sodium phosphate buffer, pH 7.5. After incubation, the reaction was terminated by the addition of protease inhibitor cocktail (Sigma). The samples were then analyzed by SDS-polyacrylamide gel electrophoresis. Following separation, the gels were stained with Biosafe Coomassie (Bio-Rad)."}, "[3]": {"experiment": "Plasma pharmacokinetics after subcutaneous delivery", "assay_type": "in vivo", "details": "10 mg/kg; for AUC(0-t): male, CD1, mouse, plasma, sc, mice", "experimental": "Compound 13 was dissolved at a concentration of 1 mg/mL in water containing carboxymethylcellulose (2% w/w) or Pluronic F127 (25% w/w). Solutions were kept on ice, and 10 mg/kg of each solution was administered to 3 male CD1 mice. Plasma was collected at 7 time points. Concentrations in plasma were determined by HPLC with tandem mass (MS/MS) detection.\nPlasma samples were precipitated with a mixture containing 80% acetonitrile. Samples were further diluted with water containing 0.1% formic acid. Chromatographic separation was performed on a reversed phase column (2.1×50 mm, particle size: […], Xbridge C8, Waters, USA). Components were separated using a linear gradient of acetonitrile containing 0.1% formic acid in ultrapurified H2O containing 0.1% formic acid (flow rate 0.2 mL/min).\nMS analyses were performed using an API 5500 QTRAP system having an API 5500 QTRAP detector and a Turbo Ion Spray interface (both from Applied Biosystems, USA). The acquisitions were performed in positive ionization mode, with optimized settings for the analytes. The instrument was operated in multiple-reaction-monitoring (MRM) mode, the following transition was used to quantify compound 13; 433.4->112.1. Data were calibrated and quantified using the Analyst™ data system (Applied Biosystems) using the response of the analyte versus the concentration."}, "Kgp": {"biological_target": "Kgp (Porphyromonas gingivalis, UniProt B2RLK2)", "experiment": "Kgp inhibition assay", "assay_type": "biochemical", "experimental": "as §1"}, "P gingivalis W83": {"test_system": "P gingivalis W83", "experiment": "P. gingivalis infection of brain tissue in vivo (qPCR)", "parameters": "species or system BalbC mice", "details": "BID subcutaneously in 25% Pluronic F127, day 35-70", "text": "BalbC mice were given a tooth ligature and infected by oral lavage with P gingivalis W83 (1×10^9 CFU in 2% carboxymethyl cellulose) or vehicle for 6 weeks. Compound 13 was delivered BID subcutaneously in 25% Pluronic F127 on day 35-70. On day 70, mice were sacrificed and perfused with PBS prior to dissection. DNA was isolated from one quarter of the brain using a DNEasy Blood & Tissue Kit (Qiagen). Forward and reverse primers for RgpB were used for qPCR to quantify P. gingivalis DNA in the brain tissue. The forward primer sequence was 5′-[…]-3′ (SEQ ID NO: 1). The reverse primer sequence was 5′-[…]-3′ (SEQ ID NO: 2). The probe sequence was 5′-6-FAM-[…]-TAMRA-3′ (SEQ ID NO: 3)."}, "RgpA": {"biological_target": "RgpA (Porphyromonas gingivalis, UniProt B2RM93)", "experiment": "RgpA inhibition assay", "assay_type": "biochemical", "experimental": "as §1"}, "[4]": {"details": "oral RTV 15 minutes prior to Kyt-36; from U.S. patent application Ser. No. 14/875,416; cited from earlier work"}}, "note": "Entries after “also recorded” stand apart in the source; their conditions may differ.", "data": [{"smiles": "N=C(N)NCCCC(NC(=O)[C@H]1CC[C@@H](N)C1)C(=O)c1nc2ccccc2s1", "note": "(single isomer, unassigned) [Compound 9]", "values": [{"measurement": "IC50", "setting": "RgpB", "value": "< 2", "unit": "nM"}]}, {"smiles": "N=C(N)NCCCC(NC(=O)[C@H]1CC[C@@H](N)C1)C(=O)c1nc2ccccc2s1", "note": "(single isomer, unassigned) [Compound 10]", "values": [{"measurement": "IC50", "setting": "trypsin", "value": "> 1000", "unit": "nM"}]}, {"smiles": "CC[C@H](NC(C)=O)C(=O)NC(CCCNC(=N)N)C(=O)c1nc2ccccc2s1", "note": "(single isomer, unassigned) [Compound 11]", "values": [{"measurement": "IC50", "setting": "trypsin", "value": "> 40", "unit": "nM"}]}, {"smiles": "CC[C@H](NC(C)=O)C(=O)NC(CCCNC(=N)N)C(=O)c1nc2ccccc2s1", "note": "(single isomer, unassigned) [Compound 12]", "values": [{"measurement": "IC50", "setting": "RgpB", "value": "< 2", "unit": "nM"}]}, {"smiles": "N=C(N)NCCC[C@H](NC(=O)C1CCCC1)C(=O)c1nc2ccccc2s1", "note": "[Compound 1, N-[(1S)-1-(1,3-benzothiazole-2-carbonyl)-4-guanidino-butyl]cyclopentanecarboxamide]", "values": [{"measurement": "IC50", "setting": "RgpB", "value": "< 1", "unit": "nM"}]}, {"smiles": "CCCC(=O)N[C@@H](CCCNC(=N)N)C(=O)c1nc2ccccc2s1", "note": "[Compound 2, N-[(1S)-1-(1,3-benzothiazole-2-carbonyl)-4-guanidino-butyl]butanamide]", "values": [{"measurement": "IC50", "setting": "trypsin", "value": "> 1000", "unit": "nM"}, {"measurement": "IC50", "setting": "RgpB", "value": "< 2", "unit": "nM"}]}, {"smiles": "N=C(N)NCCC[C@H](NC(=O)c1ccccc1)C(=O)c1nc2ccccc2s1", "note": "[Compound 3, N-[(1S)-1-(1,3-benzothiazole-2-carbonyl)-4-guanidino-butyl]benzamide]", "values": [{"measurement": "IC50", "setting": "trypsin", "value": "> 1000", "unit": "nM"}, {"measurement": "IC50", "setting": "RgpB", "value": "< 2", "unit": "nM"}]}, {"smiles": "N=C(N)NCCC[C@H](NC(=O)c1ccccc1C(F)(F)F)C(=O)c1nc2ccccc2s1", "note": "[Compound 4, N-[(1S)-1-(1,3-benzothiazole-2-carbonyl)-4-guanidino-butyl]-2-(trifluoromethyl)benzamide]", "values": [{"measurement": "IC50", "setting": "trypsin", "value": "> 350", "unit": "nM"}]}, {"smiles": "N=C(N)NCCC[C@H](NC(=O)CCCN)C(=O)c1nc2ccccc2s1", "note": "[Compound 5, 4-amino-N-[(1S)-1-(1,3-benzothiazole-2-carbonyl)-4-guanidino-butyl]butanamide]", "values": [{"measurement": "IC50", "setting": "trypsin", "value": "> 1000", "unit": "nM"}]}, {"smiles": "N=C(N)NCCC[C@H](NC(=O)[C@H]1CCCNC1)C(=O)c1nc2ccccc2s1", "note": "[Compound 6, (3S)—N-[(1S)-1-(1,3-benzothiazole-2-carbonyl)-4-guanidino-butyl]piperidine-3-carboxamide]", "values": [{"measurement": "IC50", "setting": "trypsin", "value": "> 1000", "unit": "nM"}]}, {"smiles": "N=C(N)NCCC[C@@H](NC(=O)[C@H]1CCCNC1)C(=O)c1nc2ccccc2s1", "note": "[Compound 7, (3S)—N-[(1R)-1-(1,3-benzothiazole-2-carbonyl)-4-guanidino-butyl]piperidine-3-carboxamide]", "values": [{"measurement": "IC50", "setting": "trypsin", "value": "> 1000", "unit": "nM"}]}, {"smiles": "N=C(N)NCCC[C@H](NC(=O)[C@H]1CCNC1)C(=O)c1nc2ccccc2s1", "note": "[Compound 8, (3S)—N-[1-(1,3-benzothiazole-2-carbonyl)-4-guanidino-butyl]pyrrolidine-3-carboxamide]", "values": [{"measurement": "IC50", "setting": "trypsin", "value": "> 1000", "unit": "nM"}]}, {"smiles": "N=C(N)NCCC[C@H](NC(=O)C1CCCC1)C(=O)COc1c(F)c(F)cc(F)c1F", "note": "[Compound 13, N-[(1S)-4-guanidino-1-[2-(2,3,5,6-tetrafluorophenoxy)acetyl]butyl]cyclopentanecarboxamide]", "values": [{"measurement": "Rescue of cells from P. gingivalis toxicity", "setting": "[1]", "value": "can rescue; also recorded: prevented the toxicity"}, {"measurement": "Degradation of collagen type I by P. gingivalis culture supernatant", "setting": "[2]", "value": "prevent degradation of collagen"}, {"measurement": "Plasma concentration over time", "setting": "[3]; Pluronic F127 versus carboxymethylcellulose", "value": "increased concentration"}, {"measurement": "AUC(0-t)", "setting": "[3]; in 2% carboxymethylcellulose", "value": 687, "unit": "ng·h/mL"}, {"measurement": "AUC(0-t)", "setting": "[3]; in 25% Pluronic F127", "value": 2120, "unit": "ng·h/mL"}, {"measurement": "IC50", "setting": "Kgp", "value": "> 150", "unit": "nM"}, {"measurement": "P. gingivalis DNA in brain tissue by qPCR", "setting": "P gingivalis W83", "value": "demonstrates efficacy"}, {"measurement": "IC50", "setting": "RgpB", "value": "< 1", "unit": "nM"}, {"measurement": "IC50", "setting": "RgpA", "value": "< 0.5", "unit": "nM"}]}, {"smiles": "[N-]=[N+]=Nc1cccc(C(=O)N[C@@H](CCCNC(=N)N)C(=O)COc2c(F)c(F)cc(F)c2F)c1", "note": "[Compound 14, 3-azido-N-[(1S)-4-guanidino-1-[2-(2,3,5,6-tetrafluorophenoxy)acetyl]butyl]benzamide]", "values": [{"measurement": "IC50", "setting": "Kgp", "value": "> 450", "unit": "nM"}, {"measurement": "IC50", "setting": "RgpA", "value": "< 0.5", "unit": "nM"}]}, {"smiles": "CN(NC(=O)CC[C@H](NC(=O)OCc1ccccc1)C(=O)N[C@@H](CCCCN)C(=O)C(=O)NCc1ccccc1)c1ccccc1", "note": "[Kyt-36]", "values": [{"measurement": "Half-life", "setting": "[4]", "value": "increases the half-life"}]}]}
